The values below come from paper PMC6295868, “Hybrid Inhibitors of Malarial Dihydrofolate Reductase with Dual Binding Modes That Can Forestall Resistance” (ACS Medicinal Chemistry Letters, 2018).

Molecules are shown by their SMILES. Read-outs that look alike come from different tables or passages of the source.

In data set [1] the test system is P. falciparum TM4/8.2 (NCSI). Kind of data set: microbe, parasite or virus in culture. Particulars: Plasmodium falciparum, read-out: IC50 P. falciparum TM4/8.2 (NCSI). The data set is classed as cell-based.
For data set [2], the system named is P. falciparum K1CB1 (NRNI). Put plainly: microbe, parasite or virus in culture. The data set is classed as cell-based. The conditions noted are these: Plasmodium falciparum, read-out: IC50 P. falciparum K1CB1 (NRNI).
The test system of another data set is P. falciparum W2 (IRNI). Put plainly: microbe, parasite or virus in culture. The data set is classed as cell-based. Particulars: Plasmodium falciparum, W2, read-out: IC50 P. falciparum W2 (IRNI).
The test system of data set [3] is P. falciparum CSL-2 (NRNL). Kind of data set: microbe, parasite or virus in culture. The data set is classed as cell-based. Particulars: Plasmodium falciparum, read-out: IC50 P. falciparum CSL-2 (NRNL).
Data set [4] relates to P. falciparum V1/S (IRNL). Put plainly: microbe, parasite or virus in culture. The data set is classed as cell-based. The conditions noted are these: Plasmodium falciparum, read-out: IC50 P. falciparum V1/S (IRNL).
Data set [5] relates to surrogate cells (BL21(DE3) E. coli) expressing wild-type PfDHFR. Kind of data set: Bacterial surrogate growth, cells expressing wild-type PfDHFR. The data set is classed as cell-based, Escherichia coli. Particulars: 100 µM BT1, M9 minimal medium, trimethoprim.
Data set [6] relates to surrogate cells (BL21(DE3) E. coli) expressing N51I+C59R+S108N+I164L quadruple mutant PfDHFR. Put plainly: Bacterial surrogate growth, cells expressing quadruple mutant PfDHFR. The data set is classed as cell-based, Escherichia coli. The conditions noted are these: 100 µM BT1, M9 minimal medium, trimethoprim.
Data set [7] relates to wild-type and Pyr-resistant mutant P. falciparum. Kind of data set: microbe, parasite or virus in culture. The data set is classed as cell-based. Particulars: Plasmodium falciparum, read-out: IC50 against both wild-type and Pyr-resistant mutant P. falciparum.
The next data set concerns the target T1, hDHFR (Homo sapiens, UniProt P00374).
T1 sequence (P00374 1-187): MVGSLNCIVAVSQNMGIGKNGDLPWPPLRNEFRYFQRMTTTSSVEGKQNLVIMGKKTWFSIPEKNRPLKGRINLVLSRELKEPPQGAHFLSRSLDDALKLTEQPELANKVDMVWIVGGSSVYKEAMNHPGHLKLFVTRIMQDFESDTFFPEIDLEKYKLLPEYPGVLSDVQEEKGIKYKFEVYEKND
Particulars: read-out: Ki hDHFR.

The nature of the next data set: in vitro. Particulars: African green monkey.
Another data set has as its system Vero cells. Set-up: method as in PMID 11881993. The conditions noted are these: IC50 against Vero cells; read-out: cytotoxicity Vero cells; cited from earlier work.
Data set [8] concerns P. falciparum V1/S (IRNL). Particulars: ± SD; cited from earlier work.

A word on the Ki: it is the dissociation constant of the complex between target and ligand, obtained from inhibition or displacement. Regarding `CCc1nc(N)nc(N)c1OCCCOc1cccc(-c2c(N)nc(N)nc2CC)c1` [BT1], the IC50 in [1] is 290 ± 50 nM; in data set [2], 220 ± 60 nM; in the data set on P. falciparum W2 (IRNI) it was 250 ± 50 nM; in data set [3] it was 510 ± 80 nM; in data set [4], 1720 ± 690 nM; in data set [7], below 5000 nM. In “in vitro”, this compound returned an IC50 of 5940 ± 650 nM. The “growth inhibition of surrogate cells” value in data set [5] and in data set [6] was “completely inhibitory” each time. In addition, at hDHFR, the inhibition constant Ki was 22.5 ± 2.9 nM.
As to `CCc1nc(N)nc(N)c1OCCCOc1ccc(-c2c(N)nc(N)nc2CC)cc1` [BT2S], the IC50 is 63 ± 14 nM in [1]; 1840 ± 310 nM in data set [2]; 2350 ± 100 nM in the data set on P. falciparum W2 (IRNI); 3950 ± 360 nM in data set [3]; 4400 ± 710 nM in data set [4]; 6300 ± 1500 nM in the data set “in vitro”. The Ki at hDHFR was determined as 20.2 ± 3.3 nM.
On to `CCc1nc(N)nc(N)c1OCCCOc1ccc(-c2c(N)nc(N)nc2CC)cc1` [BT2], for which, on hDHFR, the inhibition constant Ki was 18.1 ± 1.3 nM.
Turning to `CCc1nc(N)nc(N)c1-c1ccc(OCCCOc2ccc(-c3c(N)nc(N)nc3CC)cc2)cc1` [BT3S], the IC50 in [1] was 35 ± 3.3 nM; in [2] it was 330 ± 38 nM; in the data set with P. falciparum W2 (IRNI), 300 ± 30 nM; in [3], 310 ± 20 nM; in [4], 330 ± 23 nM; in the data set “in vitro”, 2530 ± 440 nM. Further, the Ki at hDHFR stood at 33.6 ± 10.6 nM.
With `CCc1nc(N)nc(N)c1-c1cccc(Cl)c1` [P30], in the data set with Vero cells, the IC50 was 7000 nM.
Turning to `Cc1nc(N)nc(N)c1OCCCOc1cc(Cl)c(Cl)cc1Cl` [P65, reference compound], the IC50 in [2] was found to be 1920 ± 530 nM; with P. falciparum W2 (IRNI), 2270 ± 650 nM; in data set [3], 4400 ± 2100 nM; in the data set “in vitro”, 4030 ± 410 nM. Also, on hDHFR, the Ki was found to be 47.6 ± 4 nM.
Regarding `CCc1nc(N)nc(N)c1-c1ccc(Cl)cc1` [Pyr, pyrimethamine, reference compound], the IC50 (in data set [8]; in the data set “in vitro”) was above 100000 nM each time.
